Laboratory results: US20250009774A1, “COMPOSITIONS AND METHODS USING A COMBINATION OF OLEUROPEIN AND MAGNESIUM” (SOCIETE DES PRODUITS NESTLE S.A., priority 2021, published 2025)

Test system: myotubes differentiated from C2C12 cells
Experiment: mitochondrial calcium elevation (mitochondrial aequorin luminescence) on caffeine stimulation
Assay type: cell-based
Conditions: 1 mM Mg^2+ + 3 μM Oea; C2C12-derived myotubes; 5 mM caffeine; n=32; P<0.05 Student's t-test; FIG. 1
Protocol: To test the effect of Oleuropein aglycone (Oea), Mg^2+ and their combination on mitochondrial activation in living cells, the inventors measured mitochondrial calcium elevation in myotubes differentiated from C2C12 cells.
C2C12 cells were purchased from ATCC. C2C12 cells were seeded in 384-well plates at a density of 4500 cells per well in DMEM medium, high glucose (Gibco)+10% fetal calf serum. Myotubes were differentiated from C2C12 cells by growing the cells in DMEM containing 2% horse serum, for 6 days.
Mitochondrial calcium measurements were carried out using myotubes infected with the adenovirus (from Sirion biotech) expressing the luminescent mitochondrially-targeted calcium sensor mitochondrial mutated aequorin (Montero et al., 2004). […] Myotubes were stimulated with 5 mM of caffeine and the total calcium transiting during stimulation was calculated as the area under the curve, during caffeine stimulation. Luminescence was measured at the FLIPR cell imaging reader (Molecular devices). Calibration of the luminescence data into Calcium concentration was carried out using an algorithm as described previously (Alvarez & Montero, 2002). Custom module analysis based on Excel (Microsoft) and GraphPad Prism 7.02 (GraphPad) software was used for quantification.

C/C=C1/C(O)OC=C(C(=O)OC)[C@H]1CC(=O)OCCc1ccc(O)c(O)c1 (mixture of isomers) [Oleuropein aglycone]
mitochondrial calcium rise: real measured effect of the combination vs expected theoretical effect (sum of Oea effect and Mg^2+ effect): synergies with Mg^2+ to activate mitochondria
